Measured values reported in patent publication US9309191B2 (priority 2013, dated 2016).

Test system: Magnaporthe grisea
Type: in vivo
Conditions: rice (Nipponbare); for lesion area of treated plants relative to the lesion area in the non-treated plant: 200 ppm foliar spray, contact with affected seedlings for 6 days; for Lesion Area (%): Concentration 200 ppm foliar spray, table

Compound: Cc1cc(OCC2CC2)c(C)cc1/N=C/N(C)C [1-17, N′-(4-cyclopropylmethoxy-2,5-dimethylphenyl)-N,N-dimethylformamidine]
- lesion area of treated plants relative to the lesion area in the non-treated plant: ≤ 10%
- Lesion Area (%): 1-10%

Compound: Cc1cc(OCC2CCCCC2)c(C)cc1N=CN(C)C [Compound 267, N′-(4-cyclohexylmethoxy-2,5-dimethylphenyl)-N,N-dimethylformamidine]
- lesion area of treated plants relative to the lesion area in the non-treated plant: ≤ 50%
- Lesion Area (%): 31-50%
